In data set [1] the test system is MDA-MB-231 cells. Nature of the data set: Cellular uptake of fluorescently labelled peptides by flow cytometry. In kind it is cell-based, human. The following applies: 90 min, flow cytometry after trypsin treatment.
Procedure: Cellular uptake of peptides was measured using flow cytometry on MCF-7 and MDA-MB-231 cells. Cells were treated with the fluorescently labelled peptides at 1, 5 and 10 µM concentrations for 90 min at 37 °C.
To study the cellular uptake of fluorophore-labelled peptides, 10^5 cells per well were plated on 24-well plates. Cells were incubated for 24 h at 37 °C, followed by treatment with the peptides at different concentrations, in serum-free medium for different time intervals. For negative control, cells were treated with serum-free medium. After the incubation, the peptide solutions were removed and 100 µL trypsin (0.25%) was added for 5–10 min to remove membrane bound peptides and detach the adherent cells from the plates. […] The fluorescence intensity of cells was quantified by flow cytometer (BD LSR II, BD Bioscience, San Jose, CA, USA). Data were analyzed with FACSDiVa 5.0 software.
Cells were treated with 1, 5 and 10 µM peptide solution for 90 min. The fluorescence intensity of the cells was determined by flow cytometry after trypsin treatment. […]
Cells were treated with 1, 5 and 10 µM peptide solutions for 90 min. The fluorescence intensity of the cells was determined by flow cytometry after trypsin treatment.
Data set [2] has as its system MDA-MB-231 cells. Put plainly: Effect of endocytosis inhibitors on cellular uptake (flow cytometry). It is filed as cell-based, human. The following applies: then Cf-labelled peptide conjugate 5 µM, 90 min, 37 °C; for Effect of EIPA on uptake: EIPA 50 µM pretreatment 30 min; for Effect of CPZ on uptake: chlorpromazine (CPZ) 30 µM pretreatment 30 min; for Effect of COL on uptake: colchicine (COL) 20 µM pretreatment 30 min. An excerpt: Several endocytic routes can be used by CPPs for entry, which then determine their intracellular fate. […] The following inhibitors were applied: 5-(N-ethyl-N-isopropyl)amiloride (EIPA) as […] [39], chlorpromazine (CPZ) to inhibit clathrin-mediated endocytosis, methyl-beta-cyclodextrin (CyD) to deplete cholesterol from the lipid rafts, and thus to inhibit caveolae-mediated endocytosis. Finally, colchicine (COL) was used to ascertain if microtubules are involved in the uptake of the peptides as this agent inhibits microtubule formation.
The effect of inhibitors was studied in the same manner but with pretreatment by an inhibitor for 30 min, and subsequently treated with a peptide conjugate at 5 µM. The cells were then incubated for 90 min at 37 °C. Macropinocytosis was inhibited using 5-(N-Ethyl-N-isopropyl)amiloride (EIPA), clathrin-mediated endocytosis with chlorpromazine (CPZ), colchicine (Col) to assess the role of microtubules, and methyl-β-cyclodextrin (CyD) for the inhibition of caveolae/lipid-raft-mediated endocytosis.
Figure 8 Effect of endocytosis inhibitors on the cellular uptake of peptide conjugates. MDA-MB-231 cells were pretreated with inhibitors EIPA (50 µM), CPZ (30 µM), CyD (5 mM) and COL (20 µM) for 30 min, the cells were then treated with the peptide conjugates (5 µM) for 90 min. Significant difference from control was measured using student’s t test (* p <0.05, ** p < 0.01and **** p< 0.0001).

The test system of data set [3] is MDA-MB-231 cells. Put plainly: Effect of ATP depletion (NaN3 and DOG) on cellular uptake (flow cytometry). In kind it is cell-based, human. Particulars: NaN3 10 mM and DOG 5 mM pretreatment 30 min, then peptide conjugate 5 µM, 90 min, 37 °C. How it is done:
In order to inhibit all pathways of endocytosis, MDA-MB-231 cells were pretreated with sodium azide (NaN3) (10 mM) and 2-Deoxyglucose (DOG) (5 mM) for 30 min and the peptide was added to the wells. The cells were then incubated for 90 min at 37 °C.
Figure 9 Effect of endocytosis inhibitors on the cellular uptake of peptide conjugates. MDA-MB-231 cells were pretreated with NaN3 (10 mM) and DOG (5 mM) for 30 min, the cells were then treated with the peptide conjugates (5 µM) for 90 min. Significant difference from control was measured using Student’s t test (* p < 0.05 and ** p < 0.01).

In data set [4] the test system is MCF-7. Particulars: 3 h incubation, 3 days culture, MTT assay; cited from earlier work. An excerpt:
Table 3 Cytostatic activity of peptide/drug conjugates on MCF-7 and MDA-MB-231. | column: IC50 ±SD (µM) ^a / MCF-7

In data set [5] the test system is MDA-MB-231. The following applies: 3 h incubation, 3 days culture, MTT assay; cited from earlier work. An excerpt:
Table 3 Cytostatic activity of peptide/drug conjugates on MCF-7 and MDA-MB-231. | column: IC50 ±SD (µM) ^a / MDA-MB-231

Data set [6] relates to MCF-7. Put plainly: In vitro cytostatic activity, MTT assay. In kind it is cell-based, human. Particulars: 3 h incubation with compound (0.4–100 µM), then 3 days culture in serum containing medium, three independent experiments with 4 parallel measurements. Here is the method: (§1) Cells were grown to confluency and were plated into 96-well plates with initial cell number of 5 × 10^3 per well. The cells were incubated at 37 °C for 24 h. Then, cells were treated with the compounds at 0.4–100 µM concentration range for 3 h in 200 µL as the final volume. Control cells were treated with serum free medium at 37 °C for 3 h. After the incubation, the cells were washed with serum free medium twice. To analyze the in vitro cytostatic effect, cells were further cultured for 72 h in serum containing medium. Then, the MTT assay was performed to measure the IC50 values. […] The cells were incubated for 4 h. Then, the plates were centrifuged at 900× g for 5 min, and the supernatant was discarded. To dissolve the formed purple crystals, 100 µL of DMSO was added, and the absorbance was determined at λ = 540 nm and 620 nm using ELISA plate reader (iEMS Reader, Labsystems, Finland). To measure the percentage of cytostasis, the following equation was used for calculation: Cytostatic effect (%) = [1 − (ODtreated/ODcontrol)] × 100; where ODtreated and ODcontrol correspond to the optical densities of the treated and untreated cells, respectively. In each case, three independent experiments were carried out with 4 parallel measurements. […] The curves were defined using MicrocalTM Origin (version 9.2) software: cytostasis was plotted as a function of concentration, fitted to a sigmoidal curve, and based on this curve, the IC50 value was determined.

Data set [7] concerns MDA-MB-231. Put plainly: In vitro cytostatic activity, MTT assay. It is filed as cell-based, human. The following applies: 3 h incubation with compound (0.4–100 µM), then 3 days culture in serum containing medium, three independent experiments with 4 parallel measurements. How it is done:
as §1

Where two headings read alike, the source gives them in different places. Starred links: 1 amine or outer side, 2 acyl side, 3 side chain; linkers in the order of their positions; H or OH if unused. Non-standard residues stand in square brackets, D forms with d. Residues, ends and D or L forms follow the SMILES beside them. Groups on a side chain read outwards from the residue. *: point of attachment. Daunorubicin = COc1cccc2c1C(=O)c1c(O)c3c(c(O)c1C2=O)C[C@@](O)(C(C)=O)C[C@@H]3O[C@H]1C[C@H](N*)[C@H](O)[C@H](C)O1; Dabcyl = CN(C)c1ccc(N=Nc2ccc(C(=O)*)cc2)cc1; X1 = O=C(c1ccc2cc(N[*:1])ccc2c1)[*:2]; Suc = O=C(CCC(=O)[*:2])[*:1]; 4Amb = NCc1ccc(C(=O)O)cc1; 4Abz = Nc1ccc(C(=O)O)cc1

The values that follow come from publication PMC9864790, “Cell-Penetrating Dabcyl-Containing Tetraarginines with Backbone Aromatics as Uptake Enhancers” (Pharmaceutics, 2022).

As for Dabcyl-PABA-RRRRK, the “Uptake relative to Arg8” value in data set [1] (CY5-labelled peptide, at all concentrations (1, 5 and 10 µM)) lay within 3 to 4.5 folds. In data set [1] (Cf-labelled peptide, 10 µM, 37 °C, fluorescence intensity relative to Dabcyl-RRWRRK(Cf) at 10 µM (100%)), this compound registered a Relative uptake intensity of 340%. Moreover, in data set [2], the “Effect of EIPA on uptake” value is given as “did not alter the internalization”, the “Effect of CPZ on uptake” value is recorded as “did not cause any inhibition” and the “Effect of COL on uptake” value is recorded as “did not cause any inhibition”. Besides, the “Uptake after pretreatment with NaN3 and DOG” value in data set [3] is “significantly lower”.
As to Dabcyl-Trp-Arg-Arg-Arg-Arg-Lys(MTX), the IC50 in data set [4] was 36.9 ± 3 µM; in data set [5], 7.4 ± 2.2 µM.
Turning to Dabcyl-Trp-Arg-Arg-Arg-Arg-Lys(DauSuc), the figures for the IC50 in data set [4] and in data set [5] were 26.4 ± 4.2 µM and 18 ± 6.7 µM, respectively.
As to Succinylated daunomycin [DauSuc], the IC50 is 24.5 ± 7.1 µM in data set [4] and greater than 100 µM in data set [5].
In the case of Dabcyl-AMBA-RRRRK, in data set [2], the “Effect of EIPA on uptake” value was “decreased the uptake”, the “Effect of CPZ on uptake” value is “did not cause any inhibition” and the “Effect of COL on uptake” value was “did not cause any inhibition”. In data set [3], the “Uptake after pretreatment with NaN3 and DOG” value is listed as “significantly lower”.
For the compound `COc1cccc2c1C(=O)c1c(O)c3c(c(O)c1C2=O)C[C@@](O)(C(C)=O)C[C@@H]3O[C@H]1C[C@H](NC(=O)CCC(=O)NCCCC[C@H](NC(=O)[C@H](CCCNC(=N)N)NC(=O)[C@H](CCCNC(=N)N)NC(=O)[C@H](CCCNC(=N)N)NC(=O)[C@H](CCCNC(=N)N)NC(=O)c2ccc3cc(NC(=O)c4ccc(N=Nc5ccc(N(C)C)cc5)cc4)ccc3c2)C(N)=O)[C@H](O)[C@H](C)O1` [Dabcyl-NAPH- Arg-Arg-Arg-Arg-Lys(DauSuc)] (Dabcyl-[X1]RRRRK([Suc-Daunorubicin])-NH2), the results for the IC50 in data set [6] and in data set [7] were 15 ± 4.2 µM and 16.6 ± 0.5 µM, respectively.
The corresponding values for `COc1cccc2c1C(=O)c1c(O)c3c(c(O)c1C2=O)C[C@@](O)(C(C)=O)C[C@@H]3O[C@H]1C[C@H](NC(=O)CCC(=O)NCCCC[C@H](NC(=O)[C@H](CCCNC(=N)N)NC(=O)[C@H](CCCNC(=N)N)NC(=O)[C@H](CCCNC(=N)N)NC(=O)[C@H](CCCNC(=N)N)NC(=O)c2ccc(NC(=O)c3ccc(N=Nc4ccc(N(C)C)cc4)cc3)cc2)C(N)=O)[C@H](O)[C@H](C)O1` [Dabcyl-PABA- Arg-Arg-Arg-Arg-Lys(DauSuc)] ({Dabcyl-4Abz}-RRRRK([Suc-Daunorubicin])-NH2) are 17.7 ± 1.2 µM and 14.3 ± 1.1 µM.
Take `COc1cccc2c1C(=O)c1c(O)c3c(c(O)c1C2=O)C[C@@](O)(C(C)=O)C[C@@H]3O[C@H]1C[C@H](NC(=O)CCC(=O)NCCCC[C@H](NC(=O)[C@H](CCCNC(=N)N)NC(=O)[C@H](CCCNC(=N)N)NC(=O)[C@H](CCCNC(=N)N)NC(=O)[C@H](CCCNC(=N)N)NC(=O)c2ccc(CNC(=O)c3ccc(N=Nc4ccc(N(C)C)cc4)cc3)cc2)C(N)=O)[C@H](O)[C@H](C)O1` [Dabcyl-AMBA-Arg-Arg-Arg-Arg-Lys(DauSuc)] ({Dabcyl-4Amb}-RRRRK([Suc-Daunorubicin])-NH2): the IC50 in data set [6] amounted to 10.3 ± 5 µM; in data set [7], 10.1 ± 6 µM.
With `CN(Cc1cnc2nc(N)nc(N)c2n1)c1ccc(C(=O)N[C@@H](CCC(=O)O)C(=O)O)cc1` [MTX, methotrexate], the results for the IC50 in data set [4] and in data set [5] were 0.8 ± 0.3 µM and greater than 100 µM, respectively.
